Test results: US8729059B2, “Paramyxovirus family inhibitors and methods of use thereof” (priority 2007, dated 2014)

What was measured:
recombinant MV-Edm = experiment: virus yield reduction assay, MV-Edm; type: cell-based, measles virus; conditions: 36 hours post-infection
[1] = tested on: panel of primary MV isolates; experiment: virus yield dose-response, primary MV isolates; type: cell-based, measles virus
Protocol: For assessment of clinical MV isolates, compound was added in 3-fold dilutions (37.5 μM highest). Thirty-six hours post-infection, cell-associated viral particles were harvested and titered as described above.

Nipah virus polymerase = Nipah virus polymerase (Nipah virus, UniProt Q997F0); type: cell-based
MV polymerase complex = MV polymerase complex (Measles virus, UniProt P12576); type: cell-based
T7 polymerase = T7 polymerase (Escherichia phage T7, UniProt P00573); experiment: in vitro protein transcription/translation; type: biochemical; conditions: 50 μM compound vs untreated
Protocol: Rabbit reticulocyte lysates were mixed with 0.5 μg plasmid DNA encoding MV F under the control of the T7 promoter (pT7-MV F), 20 μCi [^35S]-methionine, and compound 16677 (final concentration 50 μM) or equal volumes of DMSO. Samples were incubated at 30° C. for 90 min, mixed with urea buffer (200 mM Tris, pH 6.8; 8 M urea; 5% SDS; 0.1 mM EDTA; 0.03% bromphenolblue; 1.5% dithiothreitol), and fractionated on 12% polyacrylamide gels. Dried gels were exposed to Kodak XAR films.

Vero cells = experiment: Trypan blue exclusion assay; conditions: 30 hours
MV [2] = experiment: dissociation assay (dialysis); type: cell-based, measles virus; conditions: 15 μM, dialysis against PBS
Protocol: Viral particles (4×10^4 pfu, equaling an MOI=[…]) were mixed with compound 16677 (final concentration 15 μM) dissolved in phosphate buffered saline (PBS). After 10-minute incubation at 37° C. to allow compound binding, samples were either subjected to dialysis against PBS (molecular weight cut off=75 kDa, dilution factor 100,000×, 4° C., 10 hours) or incubated for 10 hours at 4° C. without dialysis. Control samples were treated with DMSO-only and subjected to dialysis. All samples were then transferred to 4×10^5 target cells seeded in a 6-well plate, cell-associated viral particles harvested 36 hours post-infection and viral titers determined by TCID50 titration.

MV [3] = experiment: time of compound addition assay; type: cell-based, measles virus; conditions: 15 μM added 12 hours post-infection, harvest 20 hours post-infection
Protocol: Cells (3×10^5/well in a 12-well plate format) were infected with MV at an MOI=[…] and compounds compound 16677 (final concentration 15 μM) or AS-48 (final concentration 75 μM) added at the indicated time points. Control cells were infected in the presence of equal amounts of DMSO. Twenty hours post-infection, when virus-induced cytopathicity exceeded 90%, cell-associated viral particles were harvested and subjected to TCID50 titration.

MV [4] = experiment: virus entry assay (pH 3.0 wash); type: cell-based, measles virus; conditions: 10 μM, compared to DMSO-treated cells
Protocol: For entry experiments, viral particles (MOI=0.5) were absorbed to 4×10^5 target cells in a 6-well plate format at 4° C. in the presence of 10 μM compound 16677 or equal amounts of DMSO for one hour. Cells were then shifted to 37° C. for 30 minutes, followed by inactivation of adsorbed, extracellular virions by a 2-minute acid treatment (40 mM sodium citrate, 10 mM KCl, 135 mM NaCl, pH 3.0) at 25° C. as previously described (37,39,49). Subsequent incubation for 30 hours at 37° C. in the presence or absence of 10 μM compound 16677 as specified was followed by determination of cell-associated virus titers by TCID50 titration.

MV-Anc [5] = experiment: compound specificity assay (BSA, higher virus inoculum); type: cell-based, measles virus
Protocol: Bovine serum albumin (BSA) was added to some samples at a final concentration of 10 mg/ml.

[6] = tested on: human parainfluenzavirus type 2 (hPIV2); type: cell-based; conditions: read-out: IC50 against hPIV2
MV-Anc [7] = experiment: compound stability under physiological conditions; type: physicochemical, measles virus; conditions: 15 μM, 37° C., pre-incubation for 24 hours
Protocol: To assess compound stability under physiological conditions, inhibitor compound 16677 was dissolved in growth medium (15 μM final concentration) and incubated at 37° C. and physiological pH for different time intervals (24 hours longest). Control samples contained equal amounts of DMSO and were likewise incubated for 24 hours. Subsequent to pre-incubation, MV was added to the compound aliquots and the mixtures transferred to 4×10^5 target cells seeded in a 6-well plate format (resulting MOI=0.1 pfu/cell). Thirty-six hours post-infection, cell-associated viral particles were harvested and virus titers determined by TCID50 titration.

[8] = tested on: canine distemper virus (CDV); type: cell-based; conditions: read-out: IC50 against CDV

Sequence of MV polymerase complex (P03422 whole entry): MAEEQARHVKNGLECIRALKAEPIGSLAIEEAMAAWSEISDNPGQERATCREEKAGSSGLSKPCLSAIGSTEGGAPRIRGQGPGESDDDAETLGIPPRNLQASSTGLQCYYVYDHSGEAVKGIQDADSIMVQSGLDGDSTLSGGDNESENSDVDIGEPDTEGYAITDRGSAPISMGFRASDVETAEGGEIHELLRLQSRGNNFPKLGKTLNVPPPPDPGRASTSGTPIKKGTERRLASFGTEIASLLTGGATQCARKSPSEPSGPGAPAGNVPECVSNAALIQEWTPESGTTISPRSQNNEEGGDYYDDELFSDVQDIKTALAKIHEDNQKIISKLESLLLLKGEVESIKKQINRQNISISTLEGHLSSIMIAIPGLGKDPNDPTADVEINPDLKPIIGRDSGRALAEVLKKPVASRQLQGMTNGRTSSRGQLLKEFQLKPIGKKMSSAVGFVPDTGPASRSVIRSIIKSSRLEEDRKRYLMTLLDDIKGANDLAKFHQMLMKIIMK
Sequence of MV polymerase complex (P12576 whole entry): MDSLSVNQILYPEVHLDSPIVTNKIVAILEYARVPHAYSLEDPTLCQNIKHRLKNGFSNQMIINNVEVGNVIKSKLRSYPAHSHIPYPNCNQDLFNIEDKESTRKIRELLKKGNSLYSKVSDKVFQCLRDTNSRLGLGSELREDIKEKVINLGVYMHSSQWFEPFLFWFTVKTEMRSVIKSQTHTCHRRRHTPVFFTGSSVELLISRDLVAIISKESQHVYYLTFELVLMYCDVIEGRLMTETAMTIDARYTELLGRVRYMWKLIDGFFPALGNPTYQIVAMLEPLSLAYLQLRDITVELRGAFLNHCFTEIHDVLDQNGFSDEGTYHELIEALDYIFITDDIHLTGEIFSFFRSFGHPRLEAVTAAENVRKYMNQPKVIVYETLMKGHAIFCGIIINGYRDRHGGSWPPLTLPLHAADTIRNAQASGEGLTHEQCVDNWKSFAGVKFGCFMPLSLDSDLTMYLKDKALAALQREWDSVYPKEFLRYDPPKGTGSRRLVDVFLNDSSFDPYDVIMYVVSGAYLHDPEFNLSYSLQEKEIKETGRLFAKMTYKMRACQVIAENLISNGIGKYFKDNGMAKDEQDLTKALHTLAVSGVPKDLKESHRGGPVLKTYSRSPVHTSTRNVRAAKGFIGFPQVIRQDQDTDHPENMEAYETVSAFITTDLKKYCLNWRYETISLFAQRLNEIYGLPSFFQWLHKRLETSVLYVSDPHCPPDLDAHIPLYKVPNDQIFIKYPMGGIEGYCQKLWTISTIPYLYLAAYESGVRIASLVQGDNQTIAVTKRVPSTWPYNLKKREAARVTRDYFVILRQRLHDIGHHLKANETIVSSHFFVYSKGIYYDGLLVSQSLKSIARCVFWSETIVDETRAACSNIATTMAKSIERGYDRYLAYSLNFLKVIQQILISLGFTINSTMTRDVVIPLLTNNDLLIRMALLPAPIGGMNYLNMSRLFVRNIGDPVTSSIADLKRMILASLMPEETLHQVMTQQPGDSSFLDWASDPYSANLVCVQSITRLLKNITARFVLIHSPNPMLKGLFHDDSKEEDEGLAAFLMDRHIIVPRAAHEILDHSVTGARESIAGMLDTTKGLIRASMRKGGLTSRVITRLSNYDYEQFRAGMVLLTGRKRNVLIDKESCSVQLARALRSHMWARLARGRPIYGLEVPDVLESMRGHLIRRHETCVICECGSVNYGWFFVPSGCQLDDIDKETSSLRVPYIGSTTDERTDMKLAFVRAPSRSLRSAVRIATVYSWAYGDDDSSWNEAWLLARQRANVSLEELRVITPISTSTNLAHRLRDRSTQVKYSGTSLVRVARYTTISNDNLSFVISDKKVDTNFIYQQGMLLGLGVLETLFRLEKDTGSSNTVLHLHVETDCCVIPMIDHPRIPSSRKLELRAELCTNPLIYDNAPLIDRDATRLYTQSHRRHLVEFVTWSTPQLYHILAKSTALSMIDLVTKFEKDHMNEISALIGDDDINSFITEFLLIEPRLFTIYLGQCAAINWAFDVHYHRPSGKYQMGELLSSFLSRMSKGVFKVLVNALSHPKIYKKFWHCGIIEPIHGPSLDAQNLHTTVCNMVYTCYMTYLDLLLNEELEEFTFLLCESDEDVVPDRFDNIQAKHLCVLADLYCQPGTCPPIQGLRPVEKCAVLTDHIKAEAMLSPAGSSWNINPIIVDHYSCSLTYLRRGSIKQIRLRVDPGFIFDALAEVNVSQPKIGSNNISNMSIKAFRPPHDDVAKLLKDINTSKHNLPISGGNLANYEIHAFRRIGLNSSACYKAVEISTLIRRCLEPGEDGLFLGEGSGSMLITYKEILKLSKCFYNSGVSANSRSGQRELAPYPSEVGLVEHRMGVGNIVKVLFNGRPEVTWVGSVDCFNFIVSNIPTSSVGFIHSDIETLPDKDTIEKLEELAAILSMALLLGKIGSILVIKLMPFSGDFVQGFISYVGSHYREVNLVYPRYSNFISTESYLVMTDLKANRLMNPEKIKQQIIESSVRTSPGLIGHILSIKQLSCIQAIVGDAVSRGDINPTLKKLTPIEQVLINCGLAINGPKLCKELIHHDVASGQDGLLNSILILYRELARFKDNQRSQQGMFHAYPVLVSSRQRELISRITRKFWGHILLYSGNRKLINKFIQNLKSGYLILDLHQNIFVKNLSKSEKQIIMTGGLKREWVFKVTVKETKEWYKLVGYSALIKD
Sequence of Nipah virus polymerase (Q997F0 whole entry, looked up): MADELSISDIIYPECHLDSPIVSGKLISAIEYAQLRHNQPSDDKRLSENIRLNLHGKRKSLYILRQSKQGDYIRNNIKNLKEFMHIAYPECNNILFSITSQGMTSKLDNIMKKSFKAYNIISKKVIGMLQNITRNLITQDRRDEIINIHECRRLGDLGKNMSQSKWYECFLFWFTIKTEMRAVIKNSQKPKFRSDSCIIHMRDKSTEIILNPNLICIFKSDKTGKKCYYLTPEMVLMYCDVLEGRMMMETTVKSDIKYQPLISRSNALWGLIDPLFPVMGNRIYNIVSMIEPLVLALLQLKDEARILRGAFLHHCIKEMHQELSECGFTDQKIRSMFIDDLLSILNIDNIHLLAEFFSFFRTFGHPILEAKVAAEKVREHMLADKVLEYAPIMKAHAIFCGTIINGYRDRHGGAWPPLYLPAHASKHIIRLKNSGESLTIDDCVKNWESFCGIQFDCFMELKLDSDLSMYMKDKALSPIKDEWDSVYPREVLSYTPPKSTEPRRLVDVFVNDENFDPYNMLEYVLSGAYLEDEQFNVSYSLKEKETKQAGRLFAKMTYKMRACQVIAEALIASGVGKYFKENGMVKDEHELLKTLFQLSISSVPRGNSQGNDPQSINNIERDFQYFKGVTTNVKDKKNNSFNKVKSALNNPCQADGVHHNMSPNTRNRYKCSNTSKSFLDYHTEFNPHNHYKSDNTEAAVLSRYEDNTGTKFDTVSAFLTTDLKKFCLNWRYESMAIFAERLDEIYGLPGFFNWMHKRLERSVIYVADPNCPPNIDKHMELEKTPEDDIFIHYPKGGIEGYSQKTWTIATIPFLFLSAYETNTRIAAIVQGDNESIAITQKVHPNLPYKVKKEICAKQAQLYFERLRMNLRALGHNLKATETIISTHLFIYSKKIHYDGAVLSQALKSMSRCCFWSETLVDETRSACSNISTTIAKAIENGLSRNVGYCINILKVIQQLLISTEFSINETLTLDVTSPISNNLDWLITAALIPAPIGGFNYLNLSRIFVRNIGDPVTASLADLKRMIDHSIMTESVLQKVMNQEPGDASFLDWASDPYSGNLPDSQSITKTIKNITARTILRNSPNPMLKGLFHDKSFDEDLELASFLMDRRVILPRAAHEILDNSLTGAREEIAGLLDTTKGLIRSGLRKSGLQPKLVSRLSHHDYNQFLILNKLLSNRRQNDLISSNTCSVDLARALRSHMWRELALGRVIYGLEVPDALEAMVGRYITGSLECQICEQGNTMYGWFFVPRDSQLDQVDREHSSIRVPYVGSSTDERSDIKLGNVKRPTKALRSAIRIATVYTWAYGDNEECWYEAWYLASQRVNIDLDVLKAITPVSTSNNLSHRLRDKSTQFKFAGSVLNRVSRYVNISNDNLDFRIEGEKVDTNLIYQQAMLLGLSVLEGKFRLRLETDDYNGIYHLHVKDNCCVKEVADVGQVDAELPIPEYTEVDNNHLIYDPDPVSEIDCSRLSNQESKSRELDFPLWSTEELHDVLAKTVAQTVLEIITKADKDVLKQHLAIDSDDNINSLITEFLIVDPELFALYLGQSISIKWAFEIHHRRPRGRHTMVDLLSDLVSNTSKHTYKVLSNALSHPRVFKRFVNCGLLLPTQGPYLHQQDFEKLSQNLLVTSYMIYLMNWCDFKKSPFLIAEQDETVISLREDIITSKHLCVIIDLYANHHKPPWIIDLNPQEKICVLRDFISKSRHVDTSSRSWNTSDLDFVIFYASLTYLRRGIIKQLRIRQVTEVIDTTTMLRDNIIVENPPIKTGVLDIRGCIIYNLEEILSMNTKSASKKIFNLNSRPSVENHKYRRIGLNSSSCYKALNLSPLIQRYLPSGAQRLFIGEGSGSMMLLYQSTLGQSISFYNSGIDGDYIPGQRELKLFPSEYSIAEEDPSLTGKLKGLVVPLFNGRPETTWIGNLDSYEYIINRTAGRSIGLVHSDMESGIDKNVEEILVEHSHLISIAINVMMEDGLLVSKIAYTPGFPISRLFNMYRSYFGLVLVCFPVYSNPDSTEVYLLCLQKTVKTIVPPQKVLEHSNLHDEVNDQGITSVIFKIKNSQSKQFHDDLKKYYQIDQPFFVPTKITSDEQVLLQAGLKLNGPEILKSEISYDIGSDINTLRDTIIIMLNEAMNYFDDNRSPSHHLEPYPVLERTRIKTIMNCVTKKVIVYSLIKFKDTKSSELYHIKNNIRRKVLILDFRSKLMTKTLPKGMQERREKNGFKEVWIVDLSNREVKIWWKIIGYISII

O=C(NC(=O)N(c1ccc(Cl)cc1)S(=O)(=O)c1ccccc1)Nc1ccccc1Cl [compound 15960]
IC50 (recombinant MV-Edm): 3.4 µM | CC50 (cells): 120 µM

Cn1nc(C(F)(F)F)cc1C(=O)Nc1ccc(S(=O)(=O)N2CCCC2)cc1 [compound 16677, 1-methyl-3-(trifluoromethyl)-N-[4-(pyrrolidinylsulfonyl)-phenyl]-1H-pyrazole-5-carboxamide]
inhibition of MV-Ibd (genotype B3, resistant to MV entry inhibitors) [1]: efficiently inhibited | effect on Nipah virus minireplicon (Nipah virus polymerase): no effect | IC50 (recombinant MV-Edm): ~0.24 µM | CAT expression in MV minireplicon assay (MV polymerase complex): strong dose-dependent inhibition of CAT expression | IC50 in minigenome assay relative to IC50 against MV isolates (MV polymerase complex): about 25 times | F protein produced in cell-free transcription/translation (T7 polymerase): Equal amounts of F protein were detected | number of live cells, of solvent-treated controls (Vero cells; compound concentration 500 μM): approximately 80% | inhibitory activity after dialysis prior to infection (reversibility) (MV [2]): completely ablated by dialysis | reduction in virus yields (MV [3]): approximately 99.9% | effect of pH 3.0 wash on virus yields after absorption in presence of compound (MV [4]): only slightly affected | change of IC50 with 10 mg/ml BSA or five-fold higher virus inoculum (MV-Anc [5]): no significant differences were observed | IC50 [6]: > 75 µM | CC50 (cells): > 150 µM | antiviral activity after pre-incubation in cell culture medium (MV-Anc [7]): no loss in antiviral activity | IC50 [8]: 28 µM

Cc1ccc2[nH]c(=O)c(CNS(=O)(=O)c3ccccc3)c(-c3ccccc3)c2c1 [compound 68290]
IC50 (recombinant MV-Edm): 7.7 µM | concentration giving 50% reduction of the number of live cells (Vero cells; trypan-blue exclusion): approximately 75 μM | CC50 (cells): > 150 µM

Cc1ccc2nsnc2c1S(=O)(=O)Nc1ccc(Cl)cc1 [compound 99920]
IC50 (recombinant MV-Edm): 1.3 µM | CC50 (cells): 100 µM
